Reference: patent publication US20040224995A1 (University of North Texas Health Science Center at Fort …, priority 2003, published 2004)

Columns and labels:
SK—N—SH cells = assay: SK-N-SH H2O2 and serum deprivation insults; assay type: cell-based, human
Experimental: Additionally, the effects of pretreatment with PPARγ agonists on H2O2 and serum deprivation toxicities were studied in SK—N—SH cells. After showing that protection in HT-22 cells was insult-type specific, we investigated whether it was also cell-type specific. We used SK—N—SH, a human neuroblastoma cell lines, and tested whether 15d-PGJ2 and troglitazone would protect SK—N—SH against H2O2 and serum deprivation insults. […] Higher concentrations (>10 μM and >20 μM) of 15dPGJ2 and troglitazone, respectively, were toxic to SK—N—SH cells.
(§1) The WY-14643, Ciglitazone, Troglitazone, 9-cis retinoic acid, and 15d-PGJ2 compounds were purchased from Biomol (Plymouth Meeting, Pa.). L-165041 and L-783483 were kindly provided by Merck Laboratories. The cell lines used were HT-22, an immortalized mouse hippocampal cell line, and SK—N—SH, a human neuroblastoma cell line. The HT-22 cells were obtained from David Schubert (Salk Institute, San Diego, Calif.). The HT-22 line was originally selected from HT-4 cells based on glutamate sensitivity. HT-4 cells were immortalized from primary hippocampal neurons using a temperature-sensitive SV-40 T antigen (Morimoto and Koshland, 1990). SK—N—SH were obtained from ATCC (Manassas, Va.). HT-22 and SK—N—SH cells were grown to confluence in DMEM and RPMI-1640 media, respectively, and supplemented with 10% charcoal/dextran-treated fetal bovine serum (FBS), and 5 mg/ml gentamycin at 37° C. under 95% air, 5% CO2. HT-22 cells were plated at a density of 50,000 cells/ml (5,000 cells/well), and SK—N—SH were plated at a density of 120,000 to 150,000 cells/ml (12,000 to 15,000 cells/well) in 96-well plates. In most studies, wells were pre-treated with PPAR ligands over a wide dose range at various times prior to being subjected to either glutamate, hydrogen peroxide (H2O2), or serum deprivation insults. In some studies, the insults were applied prior to the addition of the PPAR ligand.
(§2) The cell viability assays were conducted about 14 to 24 hours post-insult time, viability of cells was determined using 2.5 μM Calcein AM assay in phosphate-buffered saline (PBS). After 25 minutes of incubation, live cells were distinguished by the presence of intracellular esterase activity, which cleaves the calcein AM dye, producing a bright green fluorescence. Viability was measured in Relative Fluorescent Units (“RFU”), and expressed as percentage of vehicle-treated control values. The calcein assay was designed to produce results that accurately reflect viable cell numbers. At cell concentrations below 10,000 cells per well (96-well plate) a linear relationship between RFU and cell number is achieved (r^2=0.9997, data not shown).

HT-22 cells = assay: HT-22 cell viability during H2O2 exposure (calcein AM assay); assay type: cell-based, mouse; conditions: for pre-incubation required to achieve significant neuroprotection from H2O2 toxicity / protection against H2O2: HT-22; for concentrations toxic to HT-22 cells: HT-22, H2O2 experiments; for protection against H2O2: 24 h pretreatment, 30 μM H2O2; for protection when given after the H2O2 insult: post-treatment
Experimental: HT-22 cultures were incubated with different concentrations of the three compounds for 24 hours prior to the insult. […] Peak neuroprotective concentrations for 15d-PGJ2 ranged from […]. […] Additionally, we determined the effects of 15d-PGJ2 and troglitazone on HT-22 cells protection against another type of pro-oxidant insult, hydrogen peroxide H2O2. […] Higher concentrations (>10 μM and >20 μM) of 15 dPGJ2 and troglitazone, respectively, were toxic to HT-22 cells. […] HT-22 cells were pre-treated with 15d-PGJ2 for 24 hours. Thirty micromolar of H2O2 was then administered, and cell viability was determined 24 hours later. The cell viability is expressed as a % survival of the control (non-peroxide treated) cultures. DMSO received the vehicle only for 15d-PGJ2. Shown in FIG. 23 are the mean±SEM for n>6 cultures/group. The asterisk (“*”) indicates p<0.05 versus respective control.
as §1, §2

## CCCCC/C=C/C=C1/C(=O)C=C[C@@H]1C/C=C\CCCC(=O)O [15d-PGJ2, 15-deoxy-Δ^12,14-PGJ2]
SK—N—SH cells
  concentrations toxic to SK-N-SH cells: > 10 µM
  protection against H2O2 and serum deprivation insults: Neither of the compounds protected
HT-22 cells
  pre-incubation required to achieve significant neuroprotection from H2O2 toxicity: 4 h
  concentrations toxic to HT-22 cells: above 10 μM
  protection against H2O2: dose-dependent protection
  protection when given after the H2O2 insult: Neither 15dPGJ2 nor troglitazone protected

## Cc1c(C)c2c(c(C)c1O)CCC(C)(COc1ccc(CC3SC(=O)NC3=O)cc1)O2 (stereo not drawn) [troglitazone]
SK—N—SH cells
  concentrations toxic to SK-N-SH cells: > 20 µM
  protection against H2O2 and serum deprivation insults: Neither of the compounds protected
HT-22 cells
  pre-incubation required to achieve significant neuroprotection from H2O2 toxicity: 4 h
  concentrations toxic to HT-22 cells: > 20 µM
  protection against H2O2: dose-dependent protection
  protection when given after the H2O2 insult: Neither 15dPGJ2 nor troglitazone protected
